{"source": "ChEMBL document CHEMBL1201862", "about": "“PubChem BioAssay data set” (2004)", "key": {"X-box-binding protein 1": {"biological_target": "T1, X-box-binding protein 1 (Homo sapiens, UniProt P17861)", "T1 sequence (P17861 whole entry)": "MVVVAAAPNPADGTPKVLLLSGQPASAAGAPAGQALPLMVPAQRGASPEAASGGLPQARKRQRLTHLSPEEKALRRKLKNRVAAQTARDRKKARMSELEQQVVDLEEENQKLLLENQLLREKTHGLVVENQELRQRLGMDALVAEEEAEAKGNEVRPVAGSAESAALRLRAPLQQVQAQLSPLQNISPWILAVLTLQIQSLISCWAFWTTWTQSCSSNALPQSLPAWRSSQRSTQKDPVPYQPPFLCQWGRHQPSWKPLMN", "assay_type": "functional, Cricetulus griseus"}, "[1]": {"biological_target": "DNA damage-inducible transcript 3 protein (Mus musculus, UniProt P35639)", "sequence (P35639 whole entry)": "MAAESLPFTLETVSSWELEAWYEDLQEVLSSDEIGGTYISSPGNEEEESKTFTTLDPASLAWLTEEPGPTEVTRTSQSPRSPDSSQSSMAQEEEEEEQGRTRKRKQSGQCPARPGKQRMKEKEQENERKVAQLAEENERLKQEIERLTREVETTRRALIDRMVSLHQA", "assay_type": "functional, Cricetulus griseus"}, "J774.A1": {"tested_on": "J774.A1", "experiment": "Confirmation of image-based Screening Assay for Inhibitors of Phagocytosis. [Related pubchem assays (depositor defined):AID1029, AID1643]", "assay_type": "functional, cell-based", "conditions": "Mus musculus"}, "[2]": {"experiment": "cytotoxicity toward DRD oncogenic fibroblasts, dose response, cell-based, non-viral oncogenic, luminescence (AID 1934)", "assay_type": "functional", "conditions": "Homo sapiens"}, "BJ [3]": {"tested_on": "BJ", "experiment": "cells", "assay_type": "functional, cell-based", "conditions": "Homo sapiens"}, "BJ [4]": {"tested_on": "BJ", "experiment": "cytotoxicity toward BJ-TERT fibroblasts, dose response, cell-based, RAS-independent, luminescence (AID 1933)", "assay_type": "functional", "conditions": "Homo sapiens"}, "BJ [5]": {"tested_on": "BJ", "experiment": "cytotoxicity toward BJ-TERT-LT-ST fibroblasts, dose response, cell-based, RAS-independent, luminescence (AID 1935);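 further: BJ fibroblasts immortalized with TERT plus LT and ST oncogenes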", "assay_type": "functional", "conditions": "Homo sapiens"}, "[6]": {"experiment": "THP-1 cell cytotoxicity, dose response, cytotoxicity control for non-replicating M. tuberculosis project (AID 489025)", "assay_type": "functional"}, "[7]": {"biological_target": "T2, Kappa-type opioid receptor (Homo sapiens, UniProt P41145)", "T2 sequence (P41145 whole entry)": "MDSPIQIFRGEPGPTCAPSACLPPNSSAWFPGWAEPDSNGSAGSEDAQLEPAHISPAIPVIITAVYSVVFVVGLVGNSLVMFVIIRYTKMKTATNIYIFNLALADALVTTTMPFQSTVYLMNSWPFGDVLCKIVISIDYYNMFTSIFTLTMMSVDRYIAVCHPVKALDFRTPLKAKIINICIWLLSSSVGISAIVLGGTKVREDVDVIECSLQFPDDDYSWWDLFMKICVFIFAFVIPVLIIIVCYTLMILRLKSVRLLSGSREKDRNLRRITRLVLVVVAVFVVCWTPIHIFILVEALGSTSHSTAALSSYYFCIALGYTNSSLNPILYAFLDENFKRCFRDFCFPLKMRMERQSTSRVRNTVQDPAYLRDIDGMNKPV", "assay_type": "functional"}, "Beta Lactamase": {"biological_target": "Beta Lactamase (Pseudomonas aeruginosa, UniProt Q932Y6)", "sequence (Q932Y6 whole entry)": "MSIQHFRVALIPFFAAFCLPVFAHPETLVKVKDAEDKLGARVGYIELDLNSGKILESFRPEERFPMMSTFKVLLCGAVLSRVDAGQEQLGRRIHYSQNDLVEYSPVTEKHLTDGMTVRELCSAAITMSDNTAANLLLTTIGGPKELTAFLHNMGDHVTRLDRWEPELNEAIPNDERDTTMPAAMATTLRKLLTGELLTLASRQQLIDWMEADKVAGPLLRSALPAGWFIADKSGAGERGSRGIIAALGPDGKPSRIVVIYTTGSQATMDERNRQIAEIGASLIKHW", "experiment": "beta-lactamase reporter inhibitor potency, dose response, artefact control for TLR9-MyD88 binding inhibitor project, BLA reporter cells, FRET fluorescence (AID 588341);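 further: cell based assay in CHO-K1 cells stably expressing beta-lactamase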", "assay_type": "cell-based"}, "[8]": {"biological_target": "T3, Heat shock factor protein 1 (Mus musculus, UniProt P38532)", "T3 sequence (P38532 whole entry)": "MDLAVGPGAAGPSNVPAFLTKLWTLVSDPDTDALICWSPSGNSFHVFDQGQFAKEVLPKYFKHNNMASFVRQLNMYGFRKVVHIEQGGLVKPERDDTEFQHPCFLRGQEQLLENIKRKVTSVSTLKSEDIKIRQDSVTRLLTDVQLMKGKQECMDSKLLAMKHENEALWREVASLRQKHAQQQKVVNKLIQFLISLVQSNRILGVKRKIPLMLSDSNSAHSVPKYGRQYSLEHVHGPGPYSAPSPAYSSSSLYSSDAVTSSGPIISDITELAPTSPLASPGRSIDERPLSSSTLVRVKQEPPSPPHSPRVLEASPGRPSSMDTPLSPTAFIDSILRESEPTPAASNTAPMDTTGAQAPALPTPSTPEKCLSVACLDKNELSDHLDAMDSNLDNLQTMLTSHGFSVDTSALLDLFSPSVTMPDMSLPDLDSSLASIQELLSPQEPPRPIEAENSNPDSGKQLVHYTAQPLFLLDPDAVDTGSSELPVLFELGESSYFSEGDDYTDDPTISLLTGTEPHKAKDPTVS", "experiment": "HSF1 potentiators in luciferase reporter cells, confirmation, cell-based, NIH3T3, luminescence, dose retest (AID 435004);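 further: stress induced by proteasome inhibitor MG132 added 30 min after compound; actives raise luminescence as potentiators of the MG132 stress response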", "assay_type": "functional"}, "[9]": {"experiment": "inhibitors of SNCA 5'UTR-driven reporter translation, confirmation, H4 neuroglioma cells, luminescence (AID 1988)", "assay_type": "functional, cell-based"}, "cells": {"experiment": "cells", "assay_type": "functional"}, "[10]": {"experiment": "Vero E6 cell cytotoxicity, dose response, cytotoxicity control for non-replicating M. tuberculosis project, secondary assay (AID 492998)", "assay_type": "functional, VeroE6", "conditions": "Vero C1008"}, "CHO": {"tested_on": "CHO", "experiment": "cytotoxicity in TLR9-MyD88 CHO cells, dose response, cytotoxicity control for TLR9-MyD88 binding inhibitor project, cell-based, luminescence (AID 588339);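 further: CHO cells stably coexpressing TLR9 and MyD88 fusions from primary screen; compound exposure lasted 48 hours before viability readout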", "assay_type": "functional, hamster", "conditions": "Cricetulus griseus"}, "[11]": {"biological_target": "T2, Kappa-type opioid receptor", "assay_type": "functional", "remark": "listed apart in the source"}, "[12]": {"experiment": "inhibitors of firefly luciferase expression or activity, dose response, H4 neuroglioma cells, luminescence (AID 1990)", "assay_type": "functional, cell-based"}, "[13]": {"experiment": "HepG2 cell cytotoxicity, dose response, cytotoxicity control for non-replicating M. tuberculosis project (AID 489018)", "assay_type": "functional", "conditions": "Mycobacterium tuberculosis"}, "[14]": {"experiment": "Luminescence Cell-Based Dose Response HTS to Identify Inhibitors of 5'UTR Stem-Loop Driven Prion Protein mRNA Translation in H4 Neuroglioblastoma Cells. [Related pubchem assays: 1827 (Project Summary), 1813 (Primary HTS)]", "assay_type": "functional"}, "Beta-galactosidase": {"biological_target": "Beta-galactosidase (Escherichia coli, UniProt Q8VNN2)", "sequence (Q8VNN2 whole entry)": "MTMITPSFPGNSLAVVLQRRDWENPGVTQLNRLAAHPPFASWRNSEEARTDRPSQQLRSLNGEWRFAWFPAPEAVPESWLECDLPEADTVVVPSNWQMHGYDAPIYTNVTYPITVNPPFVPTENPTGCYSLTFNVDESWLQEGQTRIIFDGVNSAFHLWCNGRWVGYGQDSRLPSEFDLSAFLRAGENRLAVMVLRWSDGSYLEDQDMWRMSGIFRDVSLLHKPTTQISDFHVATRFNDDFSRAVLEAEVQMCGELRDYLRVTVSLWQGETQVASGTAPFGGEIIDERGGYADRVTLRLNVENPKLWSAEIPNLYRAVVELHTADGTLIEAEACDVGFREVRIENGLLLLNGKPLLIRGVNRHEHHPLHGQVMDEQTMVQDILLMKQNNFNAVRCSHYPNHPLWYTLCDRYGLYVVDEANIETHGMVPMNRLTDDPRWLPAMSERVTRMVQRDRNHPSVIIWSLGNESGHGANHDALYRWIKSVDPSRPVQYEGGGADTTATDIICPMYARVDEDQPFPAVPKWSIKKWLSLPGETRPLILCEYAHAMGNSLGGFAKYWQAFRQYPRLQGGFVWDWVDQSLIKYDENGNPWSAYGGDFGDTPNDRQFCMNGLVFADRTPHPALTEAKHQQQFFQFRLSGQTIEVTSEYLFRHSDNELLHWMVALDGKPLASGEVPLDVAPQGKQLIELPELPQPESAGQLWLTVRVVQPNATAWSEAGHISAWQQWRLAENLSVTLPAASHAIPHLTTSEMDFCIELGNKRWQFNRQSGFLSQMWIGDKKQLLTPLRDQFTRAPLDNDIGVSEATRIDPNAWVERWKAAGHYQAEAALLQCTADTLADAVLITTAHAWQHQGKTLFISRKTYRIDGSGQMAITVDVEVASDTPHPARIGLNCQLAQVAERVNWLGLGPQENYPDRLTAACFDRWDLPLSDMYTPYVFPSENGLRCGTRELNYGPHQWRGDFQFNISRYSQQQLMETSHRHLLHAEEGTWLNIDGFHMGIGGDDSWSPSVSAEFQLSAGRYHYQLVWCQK", "assay_type": "functional"}, "Ion channel NompC": {"biological_target": "Ion channel NompC (Danio rerio, UniProt Q7T1G6)", "sequence (Q7T1G6 whole entry)": "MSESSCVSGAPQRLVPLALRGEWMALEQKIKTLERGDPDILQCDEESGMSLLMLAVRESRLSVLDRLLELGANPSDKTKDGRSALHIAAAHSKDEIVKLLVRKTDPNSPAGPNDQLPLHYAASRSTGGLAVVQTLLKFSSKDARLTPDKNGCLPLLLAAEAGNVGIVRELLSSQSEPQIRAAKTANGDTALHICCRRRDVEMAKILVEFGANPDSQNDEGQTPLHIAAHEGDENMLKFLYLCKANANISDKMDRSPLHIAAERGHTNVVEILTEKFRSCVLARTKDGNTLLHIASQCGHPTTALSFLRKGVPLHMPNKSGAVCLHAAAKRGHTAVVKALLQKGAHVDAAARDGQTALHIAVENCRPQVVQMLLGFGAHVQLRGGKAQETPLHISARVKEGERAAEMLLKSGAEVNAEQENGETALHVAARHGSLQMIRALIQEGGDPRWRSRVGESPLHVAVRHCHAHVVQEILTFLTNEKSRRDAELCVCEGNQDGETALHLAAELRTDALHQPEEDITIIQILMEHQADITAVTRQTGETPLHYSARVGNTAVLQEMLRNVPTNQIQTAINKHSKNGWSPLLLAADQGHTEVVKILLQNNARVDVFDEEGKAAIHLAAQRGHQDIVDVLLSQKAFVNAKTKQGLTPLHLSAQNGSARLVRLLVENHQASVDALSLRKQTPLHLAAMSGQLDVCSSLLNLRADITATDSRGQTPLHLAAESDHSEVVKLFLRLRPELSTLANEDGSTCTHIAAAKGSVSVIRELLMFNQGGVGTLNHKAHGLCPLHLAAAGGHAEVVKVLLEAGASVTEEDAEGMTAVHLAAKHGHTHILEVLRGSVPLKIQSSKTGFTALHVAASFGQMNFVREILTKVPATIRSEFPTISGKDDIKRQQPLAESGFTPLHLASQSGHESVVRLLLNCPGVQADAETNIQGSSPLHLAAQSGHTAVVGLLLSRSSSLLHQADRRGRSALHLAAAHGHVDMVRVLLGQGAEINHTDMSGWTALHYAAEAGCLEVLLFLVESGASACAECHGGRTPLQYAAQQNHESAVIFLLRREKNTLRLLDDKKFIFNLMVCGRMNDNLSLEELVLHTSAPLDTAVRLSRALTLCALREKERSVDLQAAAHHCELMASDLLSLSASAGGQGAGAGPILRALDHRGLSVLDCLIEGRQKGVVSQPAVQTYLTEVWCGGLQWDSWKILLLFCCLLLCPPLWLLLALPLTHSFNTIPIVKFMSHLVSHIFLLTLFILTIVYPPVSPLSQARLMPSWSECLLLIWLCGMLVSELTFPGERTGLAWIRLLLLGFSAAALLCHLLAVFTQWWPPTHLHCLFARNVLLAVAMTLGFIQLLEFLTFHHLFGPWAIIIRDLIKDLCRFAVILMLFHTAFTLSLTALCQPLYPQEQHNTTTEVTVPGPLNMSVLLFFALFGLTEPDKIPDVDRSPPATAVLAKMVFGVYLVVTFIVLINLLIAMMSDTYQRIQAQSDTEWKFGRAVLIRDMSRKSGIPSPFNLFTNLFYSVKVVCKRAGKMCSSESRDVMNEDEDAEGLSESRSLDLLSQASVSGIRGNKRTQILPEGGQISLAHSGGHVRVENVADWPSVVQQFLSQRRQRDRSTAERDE", "experiment": "Dose response cell-based high-throughput screening assay for agonists of the transient receptor potential channel N1 (TRPN1). [Related pubchem assays (depositor defined):AID1424, AID1448]", "assay_type": "functional"}, "Mucolipin-3": {"biological_target": "Mucolipin-3 (Homo sapiens, UniProt Q8TDD5)", "sequence (Q8TDD5 whole entry)": "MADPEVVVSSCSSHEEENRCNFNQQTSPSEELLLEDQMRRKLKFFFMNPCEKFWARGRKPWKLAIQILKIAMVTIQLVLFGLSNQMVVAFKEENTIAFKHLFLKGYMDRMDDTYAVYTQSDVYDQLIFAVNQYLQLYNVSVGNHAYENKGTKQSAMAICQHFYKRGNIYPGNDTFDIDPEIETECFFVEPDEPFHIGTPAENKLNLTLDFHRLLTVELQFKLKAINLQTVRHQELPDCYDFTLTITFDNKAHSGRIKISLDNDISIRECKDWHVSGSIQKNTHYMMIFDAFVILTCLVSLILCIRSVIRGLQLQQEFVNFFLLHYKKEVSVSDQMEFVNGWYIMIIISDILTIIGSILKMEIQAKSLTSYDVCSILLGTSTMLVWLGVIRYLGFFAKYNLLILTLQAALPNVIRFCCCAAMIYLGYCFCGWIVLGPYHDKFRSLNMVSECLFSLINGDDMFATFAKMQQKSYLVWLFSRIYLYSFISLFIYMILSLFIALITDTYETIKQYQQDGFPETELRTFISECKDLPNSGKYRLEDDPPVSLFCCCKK", "experiment": "Fluorescence counterscreen assay for […] agonists: dose response cell-based high-throughput screening assay to identify agonists of the transient receptor potential channel ML3 (TRPML3). [Related pubchem assays: 1424, 1448 ]", "assay_type": "functional"}}, "note": "Activity calls are given as the source filed them.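 Wherever Absolute IC50 (XBP1) is given: confirmatory dose-response counter-screen serving a CHOP assay.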"}
{"smiles": "CCOC(=O)c1c(-c2ccccc2)oc2ccc(O)c(CN3CCOCC3)c12", "values": [{"measurement": "Absolute IC50 (XBP1)", "setting": "X-box-binding protein 1", "value": "< 10", "unit": "µM"}, {"measurement": "Absolute IC50 (CHOP)", "setting": "[1]", "value": 10, "unit": "µM"}]}
{"smiles": "CCN1CCN(c2ncc3c(n2)CC(c2cc(OC)c(OC)c(OC)c2)CC3=O)CC1", "note": "(configuration not stated)", "values": [{"measurement": "IC50", "setting": "J774.A1", "value": "0.419 µM (active)"}, {"measurement": "EC50", "setting": "[2]", "value": "2.34 µM (active)"}, {"measurement": "EC50", "setting": "BJ [3]", "value": "124 µM (active)"}, {"measurement": "EC50", "setting": "BJ [4]", "value": "5.01 µM (active)"}, {"measurement": "EC50", "setting": "BJ [5]", "value": "21.8 µM (active)"}]}
{"smiles": "CS(=O)(=O)c1sc(C#N)c2c1C(=O)CC(c1ccccc1)C2", "note": "(configuration not stated)", "values": [{"measurement": "CC50", "setting": "[6]", "value": "4.22 µM (active)"}, {"measurement": "IC50", "setting": "[7]", "value": "4.62 µM (active)"}, {"measurement": "IC50", "setting": "Beta Lactamase", "value": "7.08 µM (active)"}, {"measurement": "EC50", "setting": "[8]", "value": "17.8 µM (active)"}, {"measurement": "EC50", "setting": "[9]", "value": "7.83 µM (active)"}, {"measurement": "IC50", "setting": "cells", "value": "0.78 µM (active)"}, {"measurement": "CC50", "setting": "[10]", "value": "5.26 µM (active)"}, {"measurement": "IC50", "setting": "CHO", "value": "2.74 µM (active)"}, {"measurement": "IC50", "setting": "[11]", "value": 3.24, "unit": "µM"}, {"measurement": "EC50", "setting": "[12]", "value": "> 120 µM (not active)"}, {"measurement": "CC50", "setting": "[13]", "value": "4.85 µM (active)"}, {"measurement": "EC50", "setting": "[14]", "value": "10.3 µM (active)"}, {"measurement": "EC50", "setting": "Beta-galactosidase", "value": "> 31.5 µM (inactive)"}]}
{"smiles": "COC(=O)c1ccc(NC(=O)Nc2cccc(F)c2)cc1", "values": [{"measurement": "EC50", "setting": "Ion channel NompC", "value": "> 29.9 µM (inactive)"}, {"measurement": "EC50", "setting": "Mucolipin-3", "value": "> 29.9 µM (not active)"}]}
